Data as given in the NIST ThermoML archive (doi:10.1021/je0604378).

Conditions: Liquid; for speed of sound: Pulse-echo method; for mass density: 101.33 kPa

CCCCCCCCCCO [decan-1-ol]
Conditions | speed of sound [m/s]
292.86 K, 60790 kPa | 1646.3
292.9 K, 30390 kPa | 1533.8
292.91 K, 15200 kPa | 1470.6
292.96 K, 45590 kPa | 1592
293.1 K, 100 kPa | 1397.2
297.95 K, 15200 kPa | 1453.8
297.95 K, 66240 kPa | 1649.8
297.96 K, 30390 kPa | 1518
297.96 K, 60790 kPa | 1631.4
297.96 K, 69300 kPa | 1660
297.98 K, 45590 kPa | 1576.8
297.99 K, 71850 kPa | 1668.2
297.99 K, 73520 kPa | 1673.6
297.99 K, 74700 kPa | 1677.6
298 K, 75990 kPa | 1681.7
298.07 K, 100 kPa | 1380
302.92 K, 15200 kPa | 1436.8
303.02 K, 60790 kPa | 1617
303.03 K, 66240 kPa | 1635.7
303.03 K, 71560 kPa | 1653.5
303.04 K, 100 kPa | 1362.8
303.04 K, 73600 kPa | 1660.2
303.05 K, 69230 kPa | 1645.7
303.08 K, 30390 kPa | 1501.5
303.09 K, 75990 kPa | 1667.8
303.11 K, 45590 kPa | 1561
303.15 K, 74790 kPa | 1664.1
307.92 K, 75990 kPa | 1655.1
307.93 K, 74720 kPa | 1650.9
307.94 K, 73310 kPa | 1646.2
307.95 K, 65860 kPa | 1620.9
307.96 K, 60790 kPa | 1603.1
307.96 K, 68850 kPa | 1631.3
307.96 K, 71380 kPa | 1639.8
307.97 K, 30390 kPa | 1486.6
307.98 K, 45590 kPa | 1546.9
308.04 K, 100 kPa | 1345.8
308.09 K, 15200 kPa | 1420
313 K, 60790 kPa | 1589.4
313 K, 65980 kPa | 1607.8
313 K, 69200 kPa | 1618.9
313.01 K, 100 kPa | 1329
313.01 K, 45590 kPa | 1532.5
313.03 K, 30390 kPa | 1471.9
313.03 K, 72900 kPa | 1631.5
313.04 K, 75990 kPa | 1641.7
313.06 K, 15200 kPa | 1404.5
318.18 K, 100 kPa | 1311.7
318.36 K, 15200 kPa | 1387.7
318.4 K, 65950 kPa | 1593.7
318.41 K, 60790 kPa | 1575.1
318.43 K, 72660 kPa | 1617
318.43 K, 73870 kPa | 1621.1
318.43 K, 75990 kPa | 1628.2
318.44 K, 30390 kPa | 1456
318.44 K, 45590 kPa | 1517.7
318.45 K, 30390 kPa | 1455.9

Conditions | mass density [kg/m3]
293.15 K | 829.758
298.15 K | 826.37
303.15 K | 822.95
308.15 K | 819.57
313.15 K | 816.12
318.15 K | 812.634

CCCCCCCO [heptan-1-ol]
Conditions | speed of sound [m/s]
292.76 K, 75990 kPa | 1654.2
292.77 K, 30390 kPa | 1487.3
292.77 K, 45590 kPa | 1546.9
292.77 K, 60790 kPa | 1602.6
292.77 K, 91180 kPa | 1702
292.77 K, 101320 kPa | 1732.7
292.78 K, 15200 kPa | 1421.7
292.89 K, 100 kPa | 1345.4
298.06 K, 15200 kPa | 1404.9
298.06 K, 30390 kPa | 1471.8
298.06 K, 45590 kPa | 1532.3
298.06 K, 60790 kPa | 1588.2
298.06 K, 75990 kPa | 1640.4
298.06 K, 91180 kPa | 1688.9
298.06 K, 101320 kPa | 1719.6
298.17 K, 100 kPa | 1327.2
302.94 K, 15200 kPa | 1389.5
302.94 K, 30390 kPa | 1457.3
302.94 K, 45590 kPa | 1518.7
302.94 K, 60790 kPa | 1575.3
302.94 K, 91180 kPa | 1677
302.94 K, 101320 kPa | 1708
302.95 K, 75990 kPa | 1628
303.14 K, 100 kPa | 1310.2
307.93 K, 60790 kPa | 1561.9
307.93 K, 91180 kPa | 1664.8
307.94 K, 15200 kPa | 1374
307.94 K, 30390 kPa | 1442.8
307.94 K, 45590 kPa | 1505
307.94 K, 75990 kPa | 1615.5
307.94 K, 101320 kPa | 1696
308.12 K, 100 kPa | 1293.2
312.9 K, 30390 kPa | 1428.7
312.9 K, 45590 kPa | 1491.6
312.9 K, 60790 kPa | 1549.1
312.9 K, 75990 kPa | 1603.1
312.9 K, 91180 kPa | 1653
312.91 K, 15200 kPa | 1358.9
312.91 K, 101320 kPa | 1684.7
313.09 K, 100 kPa | 1276.3
318.29 K, 30390 kPa | 1413.6
318.29 K, 45590 kPa | 1477.5
318.29 K, 60790 kPa | 1535.5
318.29 K, 75990 kPa | 1590
318.29 K, 91180 kPa | 1640.6
318.29 K, 101320 kPa | 1672.4
318.3 K, 15200 kPa | 1342.8
318.37 K, 100 kPa | 1258.6

Conditions | mass density [kg/m3]
293.15 K | 822.297
298.15 K | 818.796
303.15 K | 815.269
308.15 K | 811.724
313.15 K | 808.158
318.15 K | 804.546

CCCCCCCCCO [nonan-1-ol]
Conditions | speed of sound [m/s]
292.86 K, 45590 kPa | 1579.5
292.86 K, 91180 kPa | 1731.8
292.86 K, 101320 kPa | 1762
292.87 K, 15200 kPa | 1456.7
292.87 K, 30390 kPa | 1520.8
292.87 K, 60790 kPa | 1634
292.87 K, 75990 kPa | 1684.4
292.88 K, 100 kPa | 1382.8
297.95 K, 60790 kPa | 1620
297.95 K, 91180 kPa | 1718.7
297.95 K, 101320 kPa | 1749.2
297.96 K, 15200 kPa | 1440.2
297.96 K, 30390 kPa | 1505.4
297.96 K, 45590 kPa | 1564.5
297.96 K, 75990 kPa | 1670.7
298.18 K, 100 kPa | 1364.6
302.93 K, 45590 kPa | 1550.1
302.93 K, 60790 kPa | 1606
302.93 K, 75990 kPa | 1657.6
302.93 K, 91180 kPa | 1705.8
302.93 K, 101320 kPa | 1736.7
302.94 K, 15200 kPa | 1424.3
302.94 K, 30390 kPa | 1490.2
303.16 K, 100 kPa | 1347.5
307.91 K, 30390 kPa | 1475.5
307.91 K, 45590 kPa | 1536
307.91 K, 60790 kPa | 1592.4
307.92 K, 15200 kPa | 1408.5
307.92 K, 75990 kPa | 1644.7
307.92 K, 91180 kPa | 1693.2
307.92 K, 101320 kPa | 1724.3
308.14 K, 100 kPa | 1330.6
312.91 K, 15200 kPa | 1392.8
312.91 K, 30390 kPa | 1460.8
312.91 K, 45590 kPa | 1522.2
312.91 K, 60790 kPa | 1578.9
312.91 K, 75990 kPa | 1632
312.91 K, 91180 kPa | 1681.1
312.91 K, 101320 kPa | 1712.3
313.11 K, 100 kPa | 1313.8
318.29 K, 100 kPa | 1296.3
318.38 K, 45590 kPa | 1507.3
318.38 K, 60790 kPa | 1564.6
318.38 K, 75990 kPa | 1618.3
318.38 K, 91180 kPa | 1667.8
318.38 K, 101320 kPa | 1699.1
318.39 K, 15200 kPa | 1375.9
318.39 K, 30390 kPa | 1444.8
318.39 K, 45590 kPa | 1507.3
318.39 K, 91180 kPa | 1667.8

Conditions | mass density [kg/m3]
293.15 K | 827.66
298.15 K | 824.239
303.16 K | 820.8
308.15 K | 817.345
313.15 K | 813.868
318.15 K | 810.376

CCCCCCCCO [octan-1-ol]
Conditions | speed of sound [m/s]
292.77 K, 15230 kPa | 1440.3
292.77 K, 30430 kPa | 1505.2
292.77 K, 76010 kPa | 1670.1
292.78 K, 60800 kPa | 1619.3
292.79 K, 91200 kPa | 1717.8
292.83 K, 45610 kPa | 1564.1
292.83 K, 96120 kPa | 1733
292.92 K, 100 kPa | 1365.2
298.07 K, 76040 kPa | 1656.5
298.07 K, 91190 kPa | 1703.9
298.07 K, 97840 kPa | 1724.3
298.09 K, 45610 kPa | 1548.8
298.09 K, 60840 kPa | 1604.6
298.13 K, 30410 kPa | 1488.8
298.19 K, 15200 kPa | 1422.6
298.2 K, 100 kPa | 1347.1
303.15 K, 76000 kPa | 1642.8
303.16 K, 91200 kPa | 1691.2
303.18 K, 100 kPa | 1330.2
303.2 K, 101340 kPa | 1722.3
303.26 K, 60820 kPa | 1590.2
303.27 K, 15200 kPa | 1406.2
303.27 K, 45600 kPa | 1533.9
303.28 K, 30410 kPa | 1473.3
308.12 K, 91200 kPa | 1679.2
308.12 K, 101320 kPa | 1710.3
308.16 K, 100 kPa | 1313.3
308.16 K, 91210 kPa | 1679.1
308.17 K, 30400 kPa | 1458.8
308.17 K, 76020 kPa | 1630
308.18 K, 45600 kPa | 1520.3
308.18 K, 60790 kPa | 1576.8
308.19 K, 15210 kPa | 1390.7
313.15 K, 100 kPa | 1296.5
313.22 K, 91200 kPa | 1666.8
313.22 K, 101340 kPa | 1697.8
313.23 K, 76000 kPa | 1616.6
313.26 K, 15200 kPa | 1375.1
313.26 K, 30390 kPa | 1443.9
313.26 K, 45590 kPa | 1506.1
313.28 K, 60790 kPa | 1563.5
318.33 K, 100 kPa | 1279.2
318.82 K, 45600 kPa | 1491
318.82 K, 60790 kPa | 1549.2
318.82 K, 75990 kPa | 1603.4
318.82 K, 101330 kPa | 1684.9
318.83 K, 15200 kPa | 1357.8
318.83 K, 91180 kPa | 1653.7
318.84 K, 30390 kPa | 1427.8

Conditions | mass density [kg/m3]
293.15 K | 825.048
298.15 K | 821.636
303.15 K | 818.173
308.15 K | 814.675
313.15 K | 811.171
318.15 K | 807.654
